Experimental data as given in ChEMBL document CHEMBL5365420, “Kinetics, Thermodynamics, and Structural Effects of Quinoline-2-Carboxylates, Zinc-Binding Inhibitors of New Delhi Metallo-β-lactamase-1 Re-sensitizing Multidrug-Resistant Bacteria for Carbapenems” (J Med Chem, 2023).

Assays:
Acinetobacter baumannii [1] = experiment: Antibacterial activity against clinical isolate Acinetobacter baumannii IC 19/09 expressing blaNDM-1 co-expressing blaOXA-64 assessed as meropenem MIC at 29.60 uM measured after 20 hrs by broth microdilution assay (reference value: 12 mg/L); assay type: functional; conditions: dose 29.6 µM
Klebsiella pneumoniae [2] = experiment: Antibacterial activity against clinical isolate Klebsiella pneumoniae 50/11 expressing blaNDM-1 co-expressing blaTEM-1/blaSHV-28/blaTEM-1/blaCTX-M-15 and blaOXA-1 assessed as meropenem MIC at 29.60 uM measured after 20 hrs by broth microdilution assay (reference value: 12 mg/L); assay type: functional; conditions: dose 29.6 µM
[3] = Inhibition of GIM1 (unknown origin) incubated for 15 mins by absorbance based microplate reader analysis; parameters: species or system Bacteria
Escherichia coli [4] = experiment: Antibacterial activity against clinical isolate Escherichia coli 371/12 expressing blaNDM-7 co-expressing blaCTX-M-15 and blaOXA-1 assessed as meropenem MIC at 59.20 uM measured after 20 hrs by broth microdilution assay (reference value: 24 mg/L); assay type: functional; conditions: dose 59.2 µM
Klebsiella pneumoniae [5] = experiment: Antibacterial activity against clinical isolate Klebsiella pneumoniae ST23213/19 expressing blaNDM-1 co-expressing blaOXA-48/blaSHV-11/blaCTX-M-15 and blaOXA-1 assessed as meropenem MIC at 59.20 uM measured after 20 hrs by broth microdilution assay (reference value: 24 mg/L); assay type: functional; conditions: dose 59.2 µM
Escherichia coli [6] = experiment: Antibacterial activity against clinical isolate Escherichia coli K12 J53-ST10 618/15 expressing blaNDM-1 assessed as meropenem MIC at 59.20 uM measured after 20 hrs by broth microdilution assay (reference value: 24 mg/L); assay type: functional; conditions: dose 59.2 µM
Klebsiella pneumoniae [7] = experiment: Antibacterial activity against clinical isolate Klebsiella pneumoniae ST1493/10 expressing blaNDM-1 co-expressing blaCMY-2like/blaTEM-1/blaCTX-M-15/blaSHV-28/blaOXA-1 and blaOXA-9 assessed as meropenem MIC at 29.60 uM measured after 20 hrs by broth microdilution assay (reference value: 12 mg/L); assay type: functional; conditions: dose 29.6 µM
Escherichia coli [8] = experiment: Antibacterial activity against clinical isolate Escherichia coli K12 J53-ST10 699/15 expressing blaNDM-1 assessed as meropenem MIC at 59.20 uM measured after 20 hrs by broth microdilution assay (reference value: 24 mg/L); assay type: functional; conditions: dose 59.2 µM
Escherichia coli [9] = experiment: Antibacterial activity against clinical isolate Escherichia coli ST1012/10 expressing blaNDM-1 co-expressing blaTEM-1/blaCTX-M-15/blaOXA-1 and blaOXA-2 assessed as meropenem MIC at 29.60 uM measured after 20 hrs by broth microdilution assay (reference value: 12 mg/L); assay type: functional; conditions: dose 29.6 µM
Klebsiella pneumoniae [10] = experiment: Antibacterial activity against clinical isolate Klebsiella pneumoniae 50/20 expressing blaNDM-5 co-expressing blaTEM-1 and blaSHV-1 assessed as meropenem MIC at 59.20 uM measured after 20 hrs by broth microdilution assay (reference value: 24 mg/L); assay type: functional; conditions: dose 59.2 µM
[11] = Inhibition of IMP-1 (unknown origin) expressed in Escherichia coli BL21-DE3 incubated for 15 mins by absorbance based microplate reader analysis; parameters: species or system Bacteria
Klebsiella pneumoniae [12] = experiment: Antibacterial activity against clinical isolate Klebsiella pneumoniae ST1493/10 expressing blaNDM-1 co-expressing blaCMY-2like/blaTEM-1/blaCTX-M-15/blaSHV-28/blaOXA-1 and blaOXA-9 assessed as meropenem MIC at 59.20 uM measured after 20 hrs by broth microdilution assay (reference value: 24 mg/L); assay type: functional; conditions: dose 59.2 µM
Escherichia coli [13] = experiment: Antibacterial activity against clinical isolate Escherichia coli K12 J53-ST10 684/18 expressing blaNDM-1 co-expressing blaCMY-2 and blaOXA-10 assessed as meropenem MIC at 59.20 uM measured after 20 hrs by broth microdilution assay (reference value: 24 mg/L); assay type: functional; conditions: dose 59.2 µM
[14] = biological target: Carbonic anhydrase 2 (Homo sapiens) (UniProt P00918); experiment: Inhibition of human CA2 at 10 uM using pNPA as substrate preincubated for 15 mins followed by substrate by absorbance based analysis relative to control
Escherichia coli [15] = experiment: Antibacterial activity against clinical isolate Escherichia coli K12 J53-ST10 696/17 expressing blaNDM-1 co-expressing blaCMY-4 assessed as meropenem MIC at 59.20 uM measured after 20 hrs by broth microdilution assay (reference value: 24 mg/L); assay type: functional; conditions: dose 59.2 µM
Escherichia coli [16] = experiment: Antibacterial activity against clinical isolate Escherichia coli K12 J53-ST10 699/15 expressing blaNDM-1 assessed as meropenem MIC at 29.60 uM measured after 20 hrs by broth microdilution assay (reference value: 12 mg/L); assay type: functional; conditions: dose 29.6 µM
Acinetobacter baumannii [17] = experiment: Antibacterial activity against clinical isolate Acinetobacter baumannii IC 19/09 expressing blaNDM-1 co-expressing blaOXA-64 assessed as meropenem MIC at 59.20 uM measured after 20 hrs by broth microdilution assay (reference value: 24 mg/L); assay type: functional; conditions: dose 59.2 µM
[18] = biological target: T1, 72 kDa type IV collagenase (Homo sapiens, UniProt P08253); experiment: Inhibition of human recombinant MMP-2 CD at 10 uM using OMNIMMP as substrate incubated for 30 mins by fluorescence based analysis relative to control
Target sequence in this assay (P08253 110-660 limits assumed): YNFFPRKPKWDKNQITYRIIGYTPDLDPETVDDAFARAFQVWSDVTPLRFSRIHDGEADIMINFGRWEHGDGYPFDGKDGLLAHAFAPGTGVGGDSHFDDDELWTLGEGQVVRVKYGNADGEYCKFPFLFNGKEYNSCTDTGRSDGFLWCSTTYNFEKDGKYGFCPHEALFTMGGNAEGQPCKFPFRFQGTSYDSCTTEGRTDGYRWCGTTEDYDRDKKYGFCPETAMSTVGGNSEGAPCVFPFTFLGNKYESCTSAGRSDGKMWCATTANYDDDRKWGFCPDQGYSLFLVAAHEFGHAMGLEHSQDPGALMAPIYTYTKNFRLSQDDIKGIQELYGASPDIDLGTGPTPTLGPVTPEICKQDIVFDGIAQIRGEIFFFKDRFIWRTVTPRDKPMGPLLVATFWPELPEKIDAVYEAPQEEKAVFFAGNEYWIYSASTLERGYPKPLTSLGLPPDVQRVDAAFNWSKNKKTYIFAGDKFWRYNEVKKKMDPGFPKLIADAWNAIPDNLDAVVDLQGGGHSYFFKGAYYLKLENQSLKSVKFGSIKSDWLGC

Escherichia coli [19] = experiment: Antibacterial activity against clinical isolate Escherichia coli K12 J53-ST10 696/17 expressing blaNDM-1 co-expressing blaCMY-4 assessed as meropenem MIC at 29.60 uM measured after 20 hrs by broth microdilution assay (reference value: 12 mg/L); assay type: functional; conditions: dose 29.6 µM
Escherichia coli [20] = experiment: Antibacterial activity against clinical isolate Escherichia coli K12 J53-ST10 618/15 expressing blaNDM-1 assessed as meropenem MIC at 29.60 uM measured after 20 hrs by broth microdilution assay (reference value: 12 mg/L); assay type: functional; conditions: dose 29.6 µM
Escherichia coli [21] = experiment: Antibacterial activity against clinical isolate Escherichia coli ST1012/10 expressing blaNDM-1 co-expressing blaTEM-1/blaCTX-M-15/blaOXA-1 and blaOXA-2 assessed as meropenem MIC at 59.20 uM measured after 20 hrs by broth microdilution assay (reference value: 24 mg/L); assay type: functional; conditions: dose 59.2 µM
[22] = Inhibition of VIM-2 (unknown origin) incubated for 15 mins by absorbance based microplate reader analysis; parameters: species or system Bacteria
Escherichia coli [23] = experiment: Antibacterial activity against clinical isolate Escherichia coli K12 J53-ST10 684/18 expressing blaNDM-1 co-expressing blaCMY-2 and blaOXA-10 assessed as meropenem MIC at 29.60 uM measured after 20 hrs by broth microdilution assay (reference value: 12 mg/L); assay type: functional; conditions: dose 29.6 µM
Klebsiella pneumoniae [24] = experiment: Antibacterial activity against clinical isolate Klebsiella pneumoniae ST23213/19 expressing blaNDM-1 co-expressing blaOXA-48/blaSHV-11/blaCTX-M-15 and blaOXA-1 assessed as meropenem MIC at 29.60 uM measured after 20 hrs by broth microdilution assay (reference value: 12 mg/L); assay type: functional; conditions: dose 29.6 µM
Klebsiella pneumoniae [25] = experiment: Antibacterial activity against clinical isolate Klebsiella pneumoniae 50/11 expressing blaNDM-1 co-expressing blaTEM-1/blaSHV-28/blaTEM-1/blaCTX-M-15 and blaOXA-1 assessed as meropenem MIC at 59.20 uM measured after 20 hrs by broth microdilution assay (reference value: 24 mg/L); assay type: functional; conditions: dose 59.2 µM
Klebsiella pneumoniae [26] = experiment: Antibacterial activity against clinical isolate Klebsiella pneumoniae 62/07 expressing blaVIM-19 co-expressing blaSHV-1/blaCTX-M-14 and blaCMY-4 assessed as meropenem MIC at 29.60 uM measured after 20 hrs by broth microdilution assay (reference value: 12 mg/L); assay type: functional; conditions: dose 29.6 µM
Escherichia coli [27] = experiment: Antibacterial activity against clinical isolate Escherichia coli 371/12 expressing blaNDM-7 co-expressing blaCTX-M-15 and blaOXA-1 assessed as meropenem MIC at 29.60 uM measured after 20 hrs by broth microdilution assay (reference value: 12 mg/L); assay type: functional; conditions: dose 29.6 µM
[28] = biological target: Histone deacetylase 1 (Homo sapiens) (UniProt Q13547); experiment: Inhibition of C-terminal 6His/FLAG-tagged human recombinant full-length HDAC1 (1 to 482(end) residues) at 10 uM using Boc-Lys-(Ac)-AMC as substrate incubated for 10 mins followed by substrate addition measured after 1 hr by fluorescence based analysis relative to control; conditions: time 70.0 min
[29] = biological target: T1, 72 kDa type IV collagenase; experiment: Binding affinity to human recombinant MMP-2 CD assessed as inhibition constant using OMNIMMP as substrate incubated for 30 mins by fluorescence based analysis
Target sequence in this assay (P08253 whole entry): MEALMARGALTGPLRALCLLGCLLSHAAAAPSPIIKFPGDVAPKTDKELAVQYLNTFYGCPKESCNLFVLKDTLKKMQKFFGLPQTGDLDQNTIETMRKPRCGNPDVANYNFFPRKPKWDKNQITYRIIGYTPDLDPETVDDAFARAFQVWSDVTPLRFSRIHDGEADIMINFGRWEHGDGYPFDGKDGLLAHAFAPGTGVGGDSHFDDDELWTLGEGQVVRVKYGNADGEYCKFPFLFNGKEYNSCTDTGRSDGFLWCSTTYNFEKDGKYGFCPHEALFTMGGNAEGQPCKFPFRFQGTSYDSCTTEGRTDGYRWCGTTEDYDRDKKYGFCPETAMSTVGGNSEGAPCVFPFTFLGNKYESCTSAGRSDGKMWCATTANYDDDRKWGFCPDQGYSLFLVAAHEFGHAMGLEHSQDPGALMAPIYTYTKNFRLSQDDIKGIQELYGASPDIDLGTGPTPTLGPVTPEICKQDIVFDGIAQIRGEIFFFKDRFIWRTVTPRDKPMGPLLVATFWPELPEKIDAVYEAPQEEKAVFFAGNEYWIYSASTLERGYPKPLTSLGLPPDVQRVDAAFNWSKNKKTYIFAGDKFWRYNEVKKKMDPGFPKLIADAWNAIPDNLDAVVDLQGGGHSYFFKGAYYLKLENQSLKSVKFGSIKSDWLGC

Klebsiella pneumoniae [30] = experiment: Antibacterial activity against clinical isolate Klebsiella pneumoniae 50/20 expressing blaNDM-5 co-expressing blaTEM-1 and blaSHV-1 assessed as meropenem MIC at 29.60 uM measured after 20 hrs by broth microdilution assay (reference value: 12 mg/L); assay type: functional; conditions: dose 29.6 µM
Klebsiella pneumoniae [31] = experiment: Antibacterial activity against clinical isolate Klebsiella pneumoniae 62/07 expressing blaVIM-19 co-expressing blaSHV-1/blaCTX-M-14 and blaCMY-4 assessed as meropenem MIC at 59.20 uM measured after 20 hrs by broth microdilution assay (reference value: 24 mg/L); assay type: functional; conditions: dose 59.2 µM

Sequence of Histone deacetylase 1 (Homo sapiens) (Q13547 whole entry): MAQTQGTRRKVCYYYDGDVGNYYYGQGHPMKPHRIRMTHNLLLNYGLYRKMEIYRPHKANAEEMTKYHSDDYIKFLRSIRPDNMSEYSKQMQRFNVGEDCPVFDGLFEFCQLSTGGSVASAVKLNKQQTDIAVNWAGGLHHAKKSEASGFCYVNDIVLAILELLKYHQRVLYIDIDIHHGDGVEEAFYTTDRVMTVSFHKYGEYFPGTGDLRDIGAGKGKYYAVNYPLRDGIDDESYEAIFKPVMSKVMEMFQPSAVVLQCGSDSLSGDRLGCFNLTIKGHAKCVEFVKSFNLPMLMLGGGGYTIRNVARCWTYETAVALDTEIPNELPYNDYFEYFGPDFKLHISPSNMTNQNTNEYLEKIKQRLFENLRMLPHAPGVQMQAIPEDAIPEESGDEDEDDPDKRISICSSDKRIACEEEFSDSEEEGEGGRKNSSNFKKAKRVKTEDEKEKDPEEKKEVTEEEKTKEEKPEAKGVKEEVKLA

| SMILES | MIC (Acinetobacter baumannii [1]) [µg/mL] | MIC (Klebsiella pneumoniae [2]) [µg/mL] | MIC (Escherichia coli [4]) [µg/mL] | MIC (Klebsiella pneumoniae [5]) [µg/mL] | MIC (Escherichia coli [6]) [µg/mL] | MIC (Klebsiella pneumoniae [7]) [µg/mL] | MIC (Escherichia coli [8]) [µg/mL] | MIC (Escherichia coli [9]) [µg/mL] | MIC (Klebsiella pneumoniae [10]) [µg/mL] | IC50 [11] [nM] | MIC (Klebsiella pneumoniae [12]) [µg/mL] | MIC (Escherichia coli [13]) [µg/mL] | inhibition [14] [%] | MIC (Escherichia coli [15]) [µg/mL] | MIC (Escherichia coli [16]) [µg/mL] | MIC (Acinetobacter baumannii [17]) [µg/mL] | inhibition [18] [%] | MIC (Escherichia coli [19]) [µg/mL] | MIC (Escherichia coli [20]) [µg/mL] | MIC (Escherichia coli [21]) [µg/mL] | further results |
| --- | --- | --- | --- | --- | --- | --- | --- | --- | --- | --- | --- | --- | --- | --- | --- | --- | --- | --- | --- | --- | --- |
| O=C(O)c1ccc2c(-c3ccccc3)ccc(NS(=O)(=O)c3ccccn3)c2n1 | 16 | 0.5 | ≤ 0.125 | 16 | ≤ 0.125 | 4 | ≤ 0.125 | 0.5 | ≤ 0.125 | 690 | 1 | ≤ 0.125 | < 5 | ≤ 0.125 | 1 | 1 | > 90 | 0.25 | ≤ 0.125 | ≤ 0.125 | IC50 [3]: 650 nM; IC50 [22]: 400 nM; MIC (Escherichia coli [23]): 0.5 µg/mL; MIC (Klebsiella pneumoniae [24]): 16 µg/mL; MIC (Klebsiella pneumoniae [25]): 0.25 µg/mL; MIC (Klebsiella pneumoniae [26]): 8 µg/mL; MIC (Escherichia coli [27]): 32 µg/mL; inhibition [28]: < 5%; Ki [29]: 7750 nM; MIC (Klebsiella pneumoniae [30]): 2 µg/mL; MIC (Klebsiella pneumoniae [31]): 0.25 µg/mL |
| O=C(O)c1cc(-c2ccccc2)c2cccc(NS(=O)(=O)c3ccccn3)c2n1 | 8 | 0.5 | ≤ 0.125 | 16 | ≤ 0.125 | 4 | ≤ 0.125 | 1 | ≤ 0.125 | 250 | 1 | ≤ 0.125 | < 5 | ≤ 0.125 | 1 | 1 | > 90 | ≤ 0.125 | ≤ 0.125 | ≤ 0.125 | IC50 [22]: 610 nM; MIC (Escherichia coli [23]): 0.25 µg/mL; MIC (Klebsiella pneumoniae [24]): 32 µg/mL; MIC (Klebsiella pneumoniae [25]): ≤ 0.125 µg/mL; MIC (Klebsiella pneumoniae [26]): 8 µg/mL; MIC (Escherichia coli [27]): 32 µg/mL; inhibition [28]: < 5%; Ki [29]: 6920 nM; MIC (Klebsiella pneumoniae [30]): 2 µg/mL; MIC (Klebsiella pneumoniae [31]): 0.5 µg/mL |
